# In US20250034208A1, “PEPTIDES AND PHARMACEUTICAL AND COSMETIC COMPOSITIONS CONTAINING THEM” (LABORATOIRES D'ANJOU, priority 2021, published 2025):
# Bridges are numbered along the chain shown (N, C = ends). Where no end group is shown, it is not given here.
# How the values were obtained:
# [1] = test system: freshly isolated human primary keratinocytes; assay: Wound closure test of a sheet of primary keratinocytes; assay type: cell-based; settings: for wound closure activity, ranking of peptides: increasing order LRIRFTYK, CSGLRIRFTYKSGC, CLRIRFTYKC, Example 11, FIG. 10
# Description: (§1) • the HT1080 line: Cells originating from epithelial lines, tools commonly used for cell adhesion studies, were first used. The cells of the HT1080 line (fibrosarcoma, Human), American Type Culture Collection CCL-121. • primary human keratinocytes: For the cell viability and migration test, freshly isolated normal human keratinocytes were used. Human keratinocytes were obtained from preputial biopsy (surgical waste, tissue bank and cells, Edouard Herriot Hospital). The culture medium used during the experiments was the medium defined for KGM-Gold keratinocytes sold by Lonza Bioscience containing 0.15 mM of CaCl2, pH 7.2 to 7.4. The keratinocytes were obtained according to the Boyce and Ham technique (Cultivation, frozen storage, and clonal growth of normal human epidermal keratinocytes in serum free-media, Tiss Cuit. Meth. 1985, 9:83-93). The pieces of skin, after rinsing in PBS buffer containing antibiotics, were freed of the fat tissue and cut into 3 mm^2 pieces, then placed in a sterile solution of 0.25% trypsin in PBS for 16 h at 4° C. The dermis/epidermis separation was carried out in a Petri dish containing culture medium in order to stop the action of trypsin. The epidermis fragments were sucked in and discharged several times to detach the free basal cells. After centrifuging, 3.10^4 live cells were seeded per cm2 on dishes for tissue cultivation (Corning, Polylabo, France). The keratinocytes were cultured at 37° C. in a CO2 incubator (5% CO2, 95% air and 98% moisture). The sub-culture took place when the cells reached the sub-confluence. The sheet of cells was then rinsed with PBS, then covered with a solution of Trypsin-EDTA (0.05-0.02%). After a short incubation at 37° C., the cells were detached, counted, and re-seeded.
# 6-well plates (Costar) are covered with collagen I for 16 h then rinsed with PBS. Three inserts with two Ibidi-sterile wells (Ibidi, reference: 80209) are deposited in each of the wells. 2×10^4 keratinocytes are deposited in each insert well in KBM-Gold. After two hours of incubation in humid air at 37° C., composed of 5% CO2 and 95% atmospheric air, the culture medium is sucked out and the inserts removed. KBM-Gold with no supplement is added to each of the wells of the plate. The cells are thus: not treated (medium alone), treated with supplement-free KBM-Gold containing the peptides studied (25 μg/ml), or treated with supplement-free KBM-Gold containing EGF at 10 ng/ml (Peprotech). The cultures are stopped at 12 h and 24 h, the media are sucked out, and the cells are fixed with 2% PBS-Paraformaldehyde for 20 minutes. After the fixator has been sucked out, the cells are colored with a 0.1% solution of Crystal Violet in ultrapure water for 30 minutes. The Crystal Violet is removed and the wells are rinsed with water. Image acquisitions are carried out and the injuries are quantified using Adobe Photoshop CS3 software.
# HT1080 cells = assay: Cell adhesion test (colorimetric, crystal violet) on immobilized peptide; assay type: cell-based, Human; settings: for adhesion response dependent on the amount of peptide immobilized in the wells: K substitution variants of LRIRATYG, Example 6, FIG. 5
# Description: as §1, with “After centrifuging, 3.10^4 live cells were seeded per cm2 on dishes for tissue cultivation (Corning, Polylabo, France). The keratinocytes were cultured at 37° C. in a CO2 incubator (5% CO2, 95% air and 98% moisture). The sub-culture took place when the cells reached the sub-confluence. The sheet of cells was then rinsed with PBS, then covered with a solution of Trypsin-EDTA (0.05-0.02%).” left out, “re-seeded. […]” for “re-seeded.”
# After seeding the cells, the plates were placed in an incubator at 37° C. in a 5% CO2 atmosphere. […] The absorbance was read at 570 nm using a plate reader (Victor^2 V Spectrophotometer, Perkin Elmer). […] The negative control value is the average of the absorbance of the three control wells (BSA). This was subtracted from each of the absorbance values obtained for the experimental points. The averages of the absorbance values for each of the conditions were calculated and were presented in the form of a curve, with on the y-axis, the average values of the absorbance, and on the x-axis, the various quantities of substrate immobilized in the wells (in μg or mole). […]
# [2] = test system: keratinocytes of the epidermis and other epithelial cells; settings: prior patent EP1784423 of the Applicant; cited from earlier work
# [3] = 25 μg/ml peptide, 12 and 24 h, Example 5, FIG. 4
sequence,measurement,setting,value
CLRIRFTYKC (disulfide 1-10 (inferred); not fully specified),"wound closure activity, ranking of peptides",[1],most significant activities
CSGLRIRATYGSGC (Other sequences),wound closure activity compared to TALRIRATYGEY and LRIRATYG,[1]; [3],significantly greater activity at 12 and 24 h
same,wound closure activity compared with the other peptides,"[1]; 25 μg/ml peptide, 12 h and 24 h, Example 4, FIG. 3",significantly greater than that of the other peptides
same,wound closure compared with negative control,"[1]; 25 μg/ml peptide, 12 h and/or 24 h post-injury, negative control culture medium alone, Example 4, FIG. 3",very significantly greater than that of the negative control
same,wound closure activity compared with negative control,"[1]; 25 μg/ml peptide, time not given, Example 5, FIG. 4",significantly greater than that of the negative control
same,adhesion induction activity relative to the LRIRATYG motif,"HT1080 cells; low concentration of immobilized peptide, Examples 2 and 3, FIG. 1 and 2",activity being doubled at a low concentration
CSGLRIRFTYKSGC (disulfide 1-14 (inferred); not fully specified),"wound closure activity, ranking of peptides",[1],most significant activities
LRIRATYK (Other sequences),adhesion response dependent on the amount of peptide immobilized in the wells,HT1080 cells,decreases
LRIRKTYG (Other sequences),adhesion response dependent on the amount of peptide immobilized in the wells,HT1080 cells,disappears
TALRIRATYGEY (Other sequences) [reference compound],induction of cell adhesion,[2],specifically induces the adhesion
same,"wound closure activity, LRIRATYG and TALRIRATYGEY compared between them",[1]; [3],equivalent activity between them
same,wound closure activity compared with negative control,"[1]; 25 μg/ml peptide, 24 h, negative control culture medium alone, Example 5, FIG. 4",significantly greater than that of the negative control
